Patent publication US9896441B2 (Lycera Corporation, priority 2014, dated 2018)

Tests used:
RORγ-LBD = molecular target: T1, RORγ-LBD (Homo sapiens, UniProt P51449); assay: RORγ-Ligand Binding Domain (LBD) TR-FRET Assay; type: biochemical; settings: for TR-FRET Assay Max Response: maximum response;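 for TR-FRET Assay Max Response: 665/615 nm signal ratio set to 100 without ursolic acid or test compound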
T1 construct: made in house; host or cells: SF9 cells (baculovirus); used as diluted lysate
T1 sequence (P51449 269-508 limits assumed): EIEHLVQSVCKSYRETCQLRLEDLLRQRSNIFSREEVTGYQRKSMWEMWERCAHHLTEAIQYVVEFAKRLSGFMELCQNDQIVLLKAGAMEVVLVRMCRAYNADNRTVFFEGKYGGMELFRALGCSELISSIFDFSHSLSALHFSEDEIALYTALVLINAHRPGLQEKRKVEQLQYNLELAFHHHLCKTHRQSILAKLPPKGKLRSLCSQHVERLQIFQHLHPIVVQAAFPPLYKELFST
Summary of the method: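 Lysate from SF9 cells expressing His-RORγ-LBD is diluted to about 3 nM final in 50 mM Tris pH 7.0 assay buffer. A biotin-tagged SRC1 LXXLL peptide goes in at 200 nM final, plus ursolic acid at 2 μM final. Test compounds carry 1% DMSO final; signal read by TR-FRET.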

Gal4-RORγ-LBD = molecular target: T2, Gal4-RORγ-LBD (Homo sapiens, UniProt P51449); assay: Gal4-RORγ Luciferase Reporter Assay in HEK-293T Cells; type: cell-based; settings: HEK-293 cells; for Gal4-RORγ Assay Max Response: maximum response
T2 construct: expressed in transfected cells
T2 sequence (P51449 269-508 limits assumed): T1 sequence (P51449 269-508 limits assumed)
Summary of the method: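 Max Response was taken as the upper plateau of a 4-parameter logistic fit of luciferase signal, normalized to 100 for wells without ursolic acid or compound. Transiently Gal4-RORγ-LBD/Gal4-luc transfected HEK-293 cells carrying […] ursolic acid were incubated with test compounds (0.2% DMSO) overnight at 37 °C and read with One-Glo.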

[1] = luciferase reporter, in presence of ursolic acid
[2] = with 2 μM ursolic acid (RORγ antagonist), highest test concentration 10 μM
[3] = ursolic acid present, luciferase readout

Row | SMILES | EC50 (RORγ-LBD; RORγ-LBD TR-FRET assay) [nM] | TR-FRET Assay Max Response (RORγ-LBD; RORγ-LBD TR-FRET assay) | EC50 (Gal4-RORγ-LBD; [1]) [nM] | Gal4-RORγ Assay Max Response (Gal4-RORγ-LBD; [1]) | EC50 (RORγ-LBD; [2]) [nM] | EC50 (Gal4-RORγ-LBD; [3]) [nM]
1 | C/C(=C\c1ccc2c(c1)N(S(=O)(=O)c1cccc(C(F)(F)F)c1)CCC2=O)c1c(F)cccc1Cl [Example 188, (E)-7-(2-(2-chloro-6-fluorophenyl)prop-1-en-1-yl)-1-((3-(trifluoromethyl)phenyl)sulfonyl)-2,3-dihydroquinolin-4(1H)-one] | < 500 | **** (a value greater than 200) | 500 to 5000 | ** (a value in the range of greater than 90 to 150) |  | 
2 | C/C(=C\c1ccc2c(c1)N(S(=O)(=O)c1cccc(C(F)(F)F)c1)CCC2(F)F)c1c(F)cccc1Cl [Example 189, (E)-7-(2-(2-Chloro-6-fluorophenyl)prop-1-en-1-yl)-4,4-difluoro-1-((3-(trifluoromethyl)phenyl)sulfonyl)-1,2,3,4-tetrahydroquinoline] | < 500 | *** (a value in the range of greater than 150 to 200) | 500 to 5000 | ** (a value in the range of greater than 90 to 150) |  | 
3 | COc1cc(S(=O)(=O)N2C[C@H](CCC(=O)O)Oc3ccc(/C=C(\C)C4CCCC4)cc32)ccc1F [Example 191A, (S,E)-3-(6-(2-cyclopentylprop-1-en-1-yl)-4-((4-fluoro-3-methoxyphenyl)sulfonyl)-3,4-dihydro-2H-benzo[b][1,4]-oxazin-2-yl)propanoic acid] | < 500 | ** (a value in the range of greater than 90 to 150) | 500 to 5000 | ** (a value in the range of greater than 90 to 150) |  | 
4 | CC/C(C)=C\c1ccc2c(c1)N(S(=O)(=O)c1cccc(C(F)(F)F)c1)C[C@H](CCC(=O)O)O2 [Example 191B, (S,Z)-3-(6-(2-methylbut-1-en-1-yl)-4-((3-(trifluoromethyl)-phenyl)sulfonyl)-3,4-dihydro-2H-benzo[b][1,4]oxazin-2-yl)propanoic acid] | < 500 | *** (a value in the range of greater than 150 to 200) | 500 to 5000 | *** (a value in the range of greater than 150 to 200) |  | 
5 | CC/C(C)=C\c1ccc2c(c1)N(S(=O)(=O)c1cccc(C(F)(F)F)c1)C[C@H](CCC(=O)OC)O2 [Example 191C, methyl (S,Z)-3-(6-(2-methylbut-1-en-1-yl)-4-((3-(trifluoromethyl)phenyl)-sulfonyl)-3,4-dihydro-2H-benzo[b][1,4]oxazin-2-yl)propanoate] | < 500 | **** (a value greater than 200) | 500 to 5000 | ** (a value in the range of greater than 90 to 150) |  | 
6 | CC/C(C)=C\c1ccc2c(c1)N(S(=O)(=O)c1cc(C(F)(F)F)cnc1OCCO)C[C@H](CCC(=O)O)O2 [Example 191D, (S,Z)-3-(4-((2-(2-hydroxyethoxy)-5-(trifluoromethyl)pyridin-3-yl)sulfonyl)-6-(2-methylbut-1-en-1-yl)-3,4-dihydro-2H-benzo[b][1,4]oxazin-2-yl)propanoic acid] | < 500 | ** (a value in the range of greater than 90 to 150) | > 10000 |  |  | 
7 | CC/C(=C\c1ccc2c(c1)N(S(=O)(=O)c1cc(C(F)(F)F)cnc1OCCO)C[C@H](CCC(=O)O)O2)C(C)C [Example 191E, (S,E)-3-(6-(2-ethyl-3-methylbut-1-en-1-yl)-4-((2-(2-hydroxy-ethoxy)-5-(trifluoromethyl)-pyridin-3-yl)sulfonyl)-3,4-dihydro-2H-benzo[b][1,4]oxazin-2-yl)propanoic acid] |  |  |  |  | < 500 | 500 to 5000
8 | CC/C(=C\c1ccc2c(c1)N(S(=O)(=O)c1cc(C(F)(F)F)cnc1OCCO)C[C@H](CCC(=O)OC)O2)C(C)C [Example 191F, methyl (S,E)-3-(6-(2-ethyl-3-methylbut-1-en-1-yl)-4-((2-(2-hydroxyethoxy)-5-(trifluoro-methyl)pyridin-3-yl)sulfonyl)-3,4-dihydro-2H-benzo[b][1,4]oxazin-2-yl)propanoate] |  |  |  |  | < 500 | 500 to 5000
